According to patent publication US20210299094A1, “METHODS OF UPREGULATING TIPARP AS ANTICANCER STRATEGIES” (CORNELL UNIVERSITY, priority 2018, published 2021):
Like-named read-outs stand apart in the source and are kept apart here. Blank lines part the entries; values can stand above or below the compound they belong to. Where a SMILES comes first, the peptide text is derived from it. The star is where a group is joined. Cbz = O=C(OCc1ccccc1)*

Columns and labels:
[1] = system: TiPARP mRNA
Procedure: (§1) Quantitative Real Time PCR (qRT-PCR)
(§2) Total RNA. was isolated using RNeasy Mini kit (Qiagen) according to the manufacturer's instructions. 0.2 μg sample of total RNA was employed for cDNA synthesis using the Superscript III First-Strand Synthesis kit (Invitrogen) following the manufacturer's instructions. For quantitative real-time PCR analysis, iTaq Universal SYBR Green Supermix (Bio-Rad) was used following the manufacturer's instructions. The reaction was performed with QuantStudio™ 7 Flex Real-Time PCR System (APPLIED BIOSYSTEMS™). In each run, melt curve analysis was performed to ensure the amplification of a single product. The relative expression of each gene, normalized to actin, was calculated using the 2^−ΔΔCt method. The following primers were used for qRT-PCR: VEGF: 5′-[…]-3′ (SEQ ID NO: 24) and 5′-[…]-3′ (SEQ ID NO: 25); GLUT1: 5′-[…] CTAAA-3′ (SEQ ID NO: 26) and 5′˜[…]-3′ (SEQ ID NO: 27); PDK1: 5′-[…]-3′ (SEQ ID NO: 28) and 5′-[…]-3′ (SEQ ID NO: 29); WSBJ: 5′-[…]-3′ (SEQ ID NO: 30) and 5′-[…]-3′ (SEQ ID NO: 31); LDHA: 5′-[…]-3′ (SEQ ID NO: 32) and 5′-[…] CAG-3′ (SEQ ID NO: 33); CXCR4: 5′-[…]-3′ (SEQ ID NO: 34) and 5′-[…]-3′ (SEQ ID NO: 35); TIPARP: 5′-[…]-3′ (SEQ ID NO: 36) and 5′-[…]-3′ (SEQ ID NO: 37), ACTIN: 5′-[…]-3′ (SEQ ID NO: 38) and 5′-[…]-3′ (SEQ ID NO: 39).

[2] = system: SKBR3 (ER neg.); experiment: IC50 in SKBR3 (ER neg.) cell line; type: cell-based; settings: Homo sapiens, SK-BR-3
[3] = system: HCT116; experiment: IC50 in HCT116 cell line; type: cell-based; settings: Homo sapiens, HCT-116
[4] = system: SKBR3; experiment: Growth inhibition IC50 in SKBR3 cells, control vs TiPARP knockdown; type: cell-based; settings: Homo sapiens
Procedure: (§3) For transient overexpression of proteins of interest, cells were transfected with expression vectors using FuGene 6 (Promega, E2691) according to the manufacturer's protocol. To stably knock down TiPARP, lentivirus was produced by transfecting HEK 293T cells with pCMV-ΔR8.2 (packaging vector), pM2D.G (envelope vector) and shRNAs (Sigma). Virus-containing medium was harvested 24 hr after transfection. Target ceils were seeded in a 6-well plate 20 hr prior to transduction (3×10^5 cells per well). At the confluence of 50%, target cells were transduced with virus particles in medium supplemented with 5 μg/ml polybrene (Sigma), and incubated for 6 hr. Remove supernatant and add fresh medium to the cells. 72 hr after infection, 2 μg/mL puromycin was added to the cell culture media for 10 days to select stably transduced target cells.
(§4) IC50 values for Biochanin A was measured in HCT116, SKBR3 and MCF-7 cell lines where TiPARP was knocked down.

[5] = system: TiPARP mRNA; remark: listed apart in the source
Procedure: as §1, §2

[6] = system: MCF-7; experiment: Growth inhibition IC50 in MCF-7 cells, control vs TiPARP knockdown; type: cell-based; settings: Homo sapiens
Procedure: as §3, §4

[7] = system: MCF-7 (ER pos.); experiment: IC50 in MCF-7 (ER pos.) cell line; type: cell-based; settings: Homo sapiens, MCF7
[8] = system: HCT116; experiment: Growth inhibition IC50 in HCT116 cells, control vs TiPARP knockdown; type: cell-based; settings: Homo sapiens
Procedure: as §3, §4

[9] = system: TiPARP mRNA; remark: listed apart in the source
Procedure: as §1, §2

[10] = system: TiPARP mRNA; experiment: RT-PCR analysis of TiPARP mRNA level in HEK 293T treated with hypoxia-mimetic agents; type: cell-based, human; settings: FIG. 1C
Description: FIGS. 1A-1F. TiPARP is a direct target gene of HIFs. (A) A schematic representation of TiPARP promoter. Core sequence of hypoxia-response element (HRE) is highlighted in red. (B) Expression of TiPARP mRNA in HCT116 and MCF-7 cells analyzed by qRT-PCR under normoxia/hypoxia (mean and s.d. of three independent experiments). (C) RT-PCR analysis of TiPARP mRNA level in HEK 293T treated with hypoxia-mimetic agent DMOG and DFO, or transfected with HA tagged HIF-1α. Expression of endogenous or HA-HIF-1α was detected by HIF-1α antibody on western blot (bottom), (D) Schematic representation of the luciferase reporter construct with wild type (WT) or mutated (Mut) HRE. (E) HIF-1α transactivation measured by luciferase reporter with WT or mutant HRE from TiPARP promoter. Transfection efficiencies were normalized to co-transfected Renilla-luciferase. Mean and standard deviation (s.d.) correspond to four technical replicates, representative of three independent experiments. NS, not significant. (F) ChIP assay assessing the chromatin binding of HIF-1α to HRE in TiPARP promoter, RNA polymerase II (Pol II) was used as a positive control.
TiPARP was previously characterized as a TCDD-responsive gene regulated by AHR (Ma, Q. Arch Biochem Biophys 404, 309-316 (2002); Ma, Q. et al, Biochem Biophys Res Commun 289, 499-506, (2001)). […]

[11] = system: TiPARP mRNA; settings: human
Procedure: as §1, §2

[12] = system: MDA-MB-468 (ER negative); experiment: IC50 in MDA-MB-468 (ER negative) cell line; type: cell-based; settings: Homo sapiens
[13] = system: MDA-MB-231 (ER negative); experiment: IC50 in MDA-MB-231 (ER negative) cell line; type: cell-based; settings: Homo sapiens
[14] = system: HME1 (normal mammary epithelial cell); experiment: IC50 in HME1 (normal mammary epithelial cell); type: cell-based
[15] = system: BT549 (ER negative); experiment: IC50 in BT549 (ER negative) cell line; type: cell-based; settings: Homo sapiens, BT-549
[16] = system: cMyc protein levels; experiment: cMyc protein levels in TiPARP-overexpressing HCT 116C cells with protease inhibitor treatment; type: cell-based, human; settings: 20 μM, over 2 hours, FIG. 10B
Description: FIGS. 10A-10E. (A) Overexpression of active TiPARP decreases cMyc protein levels. […] (B) TiPARP regulates cMyc protein levels by regulating the protein degradation pathway. […] (D) Knockdown of TiPARP in HCT116 cells caused ERα protein levels to increase. (E) Knockdown of TiPARP in MCF-7 cells caused ERα protein levels to increase.
The inventors also observed that overexpression of active TiPARP decreases cMyc protein levels.
The inventors also discovered the TiPARP regulates cMyc protein levels by regulating the protein degradation pathway.

Structure (SMILES): COc1ccc(-c2coc3cc(O)cc(O)c3c2=O)cc1 [Biochanin A]
TiPARP mRNA fold induction ([1]; human): 2.5 fold | IC50 [2]: 20 µM | IC50 [3]: 20 µM | IC50 ([4]; SK-BR-3, SKBR3, Ctrl): 52.3 µM | IC50 ([4]; SK-BR-3, SKBR3, TiPARP KD (40%)): 83.3 µM | TiPARP mRNA fold induction ([5]; human): 8.8 fold | IC50 ([6]; MCF7, MCF-7, Ctrl): 93.4 µM | IC50 ([6]; MCF7, MCF-7, TiPARP KD (40%)): 174 µM | IC50 [7]: 19.7 µM | IC50 ([8]; HCT-116, HCT116, Ctrl): 30 µM | IC50 ([8]; HCT-116, HCT116, TiPARP KD (40%)): 54.8 µM | TiPARP mRNA fold induction ([9]; human): 5.6 fold

Structure (SMILES): CC(=O)N(O)CCCCCNC(=O)CCC(=O)N(O)CCCCCNC(=O)CCC(=O)N(O)CCCCCN [DFO, desferrioxamine]
TiPARP mRNA level [10]: increased

Structure (SMILES): COC(=O)CNC(=O)C(=O)OC [DMOG, dimethyloxalylglycine]
TiPARP mRNA level [10]: increased

Structure (SMILES): c1ccc2c(Cc3c[nH]c4ccccc34)c[nH]c2c1 [Diindolylmethane, diindolylmethane]
TiPARP mRNA fold induction ([1]; human): 8.0 fold | IC50 [2]: 45 µM | IC50 [3]: 39 µM | TiPARP mRNA fold induction [11]: 3.2 fold | TiPARP mRNA fold induction ([5]; human): 4.2 fold | IC50 [12]: 13.5 µM | IC50 [13]: 47.9 µM | IC50 [7]: 31 µM | IC50 [14]: 51.2 µM | TiPARP mRNA fold induction ([9]; human): 3.3 fold | IC50 [15]: 32.1 µM

Structure (SMILES): CC(C)C[C@@H](C=O)NC(=O)[C@H](CC(C)C)NC(=O)[C@H](CC(C)C)NC(=O)OCc1ccccc1 [MG132] (Cbz-Leu-Leu-Leu-aldehyde)
effect on TiPARP-overexpression-induced decrease of cMyc protein levels [16]: effectively blocked the effect of TiPARP overexpression

Continued, in another order:

TiPARP mRNA fold induction [1]: 2.3 fold | TiPARP mRNA fold induction [5]: 2.5 fold | TiPARP mRNA fold induction [9]: 1.7 fold
Structure (SMILES): COc1ccc(-c2coc3cc(O)ccc3c2=O)cc1 [Formonometin, formonometin]

TiPARP mRNA fold induction ([1]; human): 1.7 fold | TiPARP mRNA fold induction ([5]; human): 2.3 fold | TiPARP mRNA fold induction ([9]; human): 0.81 fold
Structure (SMILES): COc1ccc2[nH]c([S+]([O-])Cc3ncc(C)c(OC)c3C)nc2c1 (stereo not drawn) [Omerprazole, omeprazole]

IC50 [2]: 35.3 µM | IC50 [3]: 46 µM | IC50 [12]: 97.3 µM | IC50 [13]: 90.4 µM | IC50 [7]: 27.7 µM | IC50 [15]: 23.1 µM
Structure (SMILES): Oc1ccc(C=Cc2cc(O)cc(O)c2)cc1 [Resveratrol, resveratrol]
IC50 [14]: 189 µM

TiPARP mRNA fold induction [1]: 1.4 fold | TiPARP mRNA fold induction [5]: 1.4 fold | TiPARP mRNA fold induction [9]: 1.5 fold
Structure (SMILES): OCc1c[nH]c2ccccc12 [indole-3-carbinol]
